Test results as given in US20230278972A1, “SUBSTITUTED HALOALKYL SULFONANILIDE HERBICIDES” (FMC Corporation, priority 2020, published 2023).

What was measured:
Type in all cases: in vivo
[1] = tested on: pigweed (Amaranthus retroflexus); assay: Test A preemergence, pigweed; conditions: for Plant response rating, Pigweed: 31 g ai/ha, visual injury, 0 to 100 scale (0 no effect, 100 complete control), approx. 10 days; for Pigweed plant response rating: 125 g ai/ha, visual injury on 0 to 100 scale (0 no effect, 100 complete control), approximately 10 days
Outline: (§1)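 Directed soil spray at planting gave the preemergence treatment, while foliar application to one- to two-leaf seedlings (2–10 cm) gave the postemergence one; pots held a loam and sand mixture and chemicals were carried in a non-phytotoxic solvent with surfactant.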

corn (Zea mays) = assay: Test A postemergence, corn; conditions: Postemergence, 0 to 100 scale (0 no effect, 100 complete control)
Outline: (§2)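 Whole-plant herbicidal screen in pots of loam blended with sand. Sprays used a surfactant-containing, non-phytotoxic solvent vehicle. Timing was preemergence soil-directed at planting or postemergence at the one- to two-leaf stage (2–10 cm).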

[2] = tested on: Foxtail, Giant (giant foxtail, Setaria faberi); assay: Test A postemergence, Foxtail, Giant; conditions: Postemergence, 0 to 100 scale (0 no effect, 100 complete control)
Outline: as §2

[3] = tested on: Foxtail, Giant (giant foxtail, Setaria faberi); assay: Test A preemergence, Foxtail, Giant; conditions: Preemergence; for Plant response rating, Foxtail, Giant: 31 g ai/ha, visual injury, 0 to 100 scale (0 no effect, 100 complete control), approx. 10 days; for Foxtail, Giant plant response rating: 125 g ai/ha, visual injury on 0 to 100 scale (0 no effect, 100 complete control), approximately 10 days
Outline: as §2

[4] = tested on: Ryegrass, Italian (Italian ryegrass, Lolium multiflorum); assay: Test A preemergence, Ryegrass, Italian; conditions: Preemergence; for Plant response rating, Ryegrass, Italian: 31 g ai/ha, visual injury, 0 to 100 scale (0 no effect, 100 complete control), approx. 10 days; for Ryegrass, Italian plant response rating: 125 g ai/ha, visual injury on 0 to 100 scale (0 no effect, 100 complete control), approximately 10 days
Outline: as §2

[5] = tested on: barnyardgrass (Echinochloa crus-galli); assay: Test A preemergence, barnyardgrass; conditions: Preemergence; for Plant response rating, Barnyardgrass: 31 g ai/ha, visual injury, 0 to 100 scale (0 no effect, 100 complete control), approx. 10 days; for Barnyardgrass plant response rating: 125 g ai/ha, visual injury on 0 to 100 scale (0 no effect, 100 complete control), approximately 10 days
Outline: as §2

[6] = tested on: galium (catchweed bedstraw, Galium aparine); assay: Test A postemergence, galium; conditions: Postemergence, 0 to 100 scale (0 no effect, 100 complete control)
Outline: as §1

[7] = tested on: wheat (Triticum aestivum); assay: Test A postemergence, wheat; conditions: Postemergence, 0 to 100 scale (0 no effect, 100 complete control)
Outline: as §1

[8] = tested on: blackgrass (Alopecurus myosuroides); assay: Test A postemergence, blackgrass; conditions: Postemergence, 0 to 100 scale (0 no effect, 100 complete control)
Outline: as §2

[9] = tested on: pigweed (Amaranthus retroflexus); assay: Test A postemergence, pigweed; conditions: Postemergence, 0 to 100 scale (0 no effect, 100 complete control)
Outline: as §2

[10] = tested on: ragweed (common ragweed, Ambrosia artemisiifolia); assay: Test A postemergence, ragweed; conditions: Postemergence, 0 to 100 scale (0 no effect, 100 complete control)
Outline: as §2

kochia (Bassia scoparia) [11] = assay: Test A postemergence, kochia; conditions: Postemergence, 0 to 100 scale (0 no effect, 100 complete control)
Outline: as §2

[12] = tested on: Ryegrass, Italian (Italian ryegrass, Lolium multiflorum); assay: Test A postemergence, Ryegrass, Italian; conditions: Postemergence, 0 to 100 scale (0 no effect, 100 complete control)
Outline: as §2

[13] = tested on: barnyardgrass (Echinochloa crus-galli); assay: Test A postemergence, barnyardgrass; conditions: Postemergence, 0 to 100 scale (0 no effect, 100 complete control)
Outline: as §1

kochia (Bassia scoparia) [14] = assay: Test A preemergence, kochia; conditions: Preemergence; for Plant response rating, Kochia: 31 g ai/ha, visual injury, 0 to 100 scale (0 no effect, 100 complete control), approx. 10 days; for Kochia plant response rating: 125 g ai/ha, visual injury on 0 to 100 scale (0 no effect, 100 complete control), approximately 10 days
Outline: as §2

[15] = tested on: ragweed (common ragweed, Ambrosia artemisiifolia); assay: Test A preemergence, ragweed; conditions: Preemergence; for Plant response rating, Ragweed: 31 g ai/ha, visual injury, 0 to 100 scale (0 no effect, 100 complete control), approx. 10 days; for Ragweed plant response rating: 125 g ai/ha, visual injury on 0 to 100 scale (0 no effect, 100 complete control), approximately 10 days
Outline: as §2

[16] = 125 g ai/ha, visual injury approx. 10 days

Structure (SMILES): CO[C@@H]1CCCN(C(=O)c2cc(N(S(=O)(=O)C(F)(F)F)S(=O)(=O)C(F)(F)F)c(C)cc2C)C1 [Compound 95]
- Plant response rating, Pigweed [1]: 70
- Pigweed plant response rating [1]: 90
- Plant response rating, Corn (corn (Zea mays); 31 g ai/ha): 0
- Plant response rating, Corn (corn (Zea mays); [16]): 20
- Plant response rating, Foxtail, Giant ([2]; 31 g ai/ha): 0
- Plant response rating, Foxtail, Giant [2, 16]: 0
- Plant response rating, Foxtail, Giant [3]: 90
- Foxtail, Giant plant response rating [3]: 100
- Plant response rating, Ryegrass, Italian [4]: 20
- Ryegrass, Italian plant response rating [4]: 90
- Plant response rating, Barnyardgrass [5]: 10
- Barnyardgrass plant response rating [5]: 80
- Plant response rating, Galium ([6]; 31 g ai/ha): 40
- Plant response rating, Galium [6, 16]: 80
- Plant response rating, Wheat ([7]; 31 g ai/ha): 0
- Plant response rating, Wheat [7, 16]: 10
- Plant response rating, Blackgrass ([8]; 31 g ai/ha): 0
- Plant response rating, Blackgrass [8, 16]: 0
- Plant response rating, Pigweed ([9]; 31 g ai/ha): 40
- Plant response rating, Pigweed [9, 16]: 80
- Plant response rating, Ragweed ([10]; 31 g ai/ha): 0
- Plant response rating, Ragweed [10, 16]: 0
- Plant response rating, Kochia (kochia (Bassia scoparia) [11]; 31 g ai/ha): 10
- Plant response rating, Kochia (kochia (Bassia scoparia) [11]; [16]): 30
- Plant response rating, Ryegrass, Italian ([12]; 31 g ai/ha): 0
- Plant response rating, Ryegrass, Italian [12, 16]: 0
- Plant response rating, Barnyardgrass ([13]; 31 g ai/ha): 0
- Plant response rating, Barnyardgrass [13, 16]: 30
- Plant response rating, Kochia (kochia (Bassia scoparia) [14]): 0
- Kochia plant response rating (kochia (Bassia scoparia) [14]): 10
- Plant response rating, Ragweed [15]: 0
- Ragweed plant response rating [15]: 60

Structure (SMILES): COC1CCCN(C(=O)c2cc(N(COC(C)=O)S(=O)(=O)C(F)(F)F)c(C)cc2C)C1 (stereo not drawn) [Compound 96]
- Plant response rating, Pigweed [1]: 20
- Pigweed plant response rating [1]: 90
- Plant response rating, Corn (corn (Zea mays); 31 g ai/ha): 10
- Plant response rating, Corn (corn (Zea mays); [16]): 10
- Plant response rating, Foxtail, Giant ([2]; 31 g ai/ha): 0
- Plant response rating, Foxtail, Giant [2, 16]: 10
- Plant response rating, Foxtail, Giant [3]: 40
- Foxtail, Giant plant response rating [3]: 80
- Plant response rating, Ryegrass, Italian [4]: 0
- Ryegrass, Italian plant response rating [4]: 80
- Plant response rating, Barnyardgrass [5]: 10
- Barnyardgrass plant response rating [5]: 70
- Plant response rating, Galium ([6]; 31 g ai/ha): 80
- Plant response rating, Galium [6, 16]: 80
- Plant response rating, Wheat ([7]; 31 g ai/ha): 0
- Plant response rating, Wheat [7, 16]: 40
- Plant response rating, Blackgrass ([8]; 31 g ai/ha): 0
- Plant response rating, Blackgrass [8, 16]: 0
- Plant response rating, Pigweed ([9]; 31 g ai/ha): 30
- Plant response rating, Pigweed [9, 16]: 30
- Plant response rating, Ragweed ([10]; 31 g ai/ha): 30
- Plant response rating, Ragweed [10, 16]: 40
- Plant response rating, Kochia (kochia (Bassia scoparia) [11]; 31 g ai/ha): 10
- Plant response rating, Kochia (kochia (Bassia scoparia) [11]; [16]): 20
- Plant response rating, Ryegrass, Italian ([12]; 31 g ai/ha): 0
- Plant response rating, Ryegrass, Italian [12, 16]: 20
- Plant response rating, Barnyardgrass ([13]; 31 g ai/ha): 0
- Plant response rating, Barnyardgrass [13, 16]: 30
- Plant response rating, Kochia (kochia (Bassia scoparia) [14]): 0
- Kochia plant response rating (kochia (Bassia scoparia) [14]): 0
- Plant response rating, Ragweed [15]: 0
- Ragweed plant response rating [15]: 30

Structure (SMILES): COC1CCCN(C(=O)c2cc(NS(=O)(=O)C(F)(F)F)c(C)c(F)c2C)C1 (stereo not drawn) [Compound 98]
- Plant response rating, Pigweed [1]: 70
- Pigweed plant response rating [1]: 100
- Plant response rating, Corn (corn (Zea mays); 31 g ai/ha): 0
- Plant response rating, Corn (corn (Zea mays); [16]): 10
- Plant response rating, Foxtail, Giant ([2]; 31 g ai/ha): 0
- Plant response rating, Foxtail, Giant [2, 16]: 20
- Plant response rating, Foxtail, Giant [3]: 80
- Foxtail, Giant plant response rating [3]: 100
- Plant response rating, Ryegrass, Italian [4]: 30
- Ryegrass, Italian plant response rating [4]: 50
- Plant response rating, Barnyardgrass [5]: 0
- Barnyardgrass plant response rating [5]: 90
- Plant response rating, Galium ([6]; 31 g ai/ha): 60
- Plant response rating, Galium [6, 16]: 90
- Plant response rating, Wheat ([7]; 31 g ai/ha): 0
- Plant response rating, Wheat [7, 16]: 40
- Plant response rating, Blackgrass ([8]; 31 g ai/ha): 20
- Plant response rating, Blackgrass [8, 16]: 0
- Plant response rating, Pigweed ([9]; 31 g ai/ha): 30
- Plant response rating, Pigweed [9, 16]: 80
- Plant response rating, Ragweed ([10]; 31 g ai/ha): 50
- Plant response rating, Ragweed [10, 16]: 60
- Plant response rating, Kochia (kochia (Bassia scoparia) [11]; 31 g ai/ha): 10
- Plant response rating, Kochia (kochia (Bassia scoparia) [11]; [16]): 20
- Plant response rating, Ryegrass, Italian ([12]; 31 g ai/ha): 30
- Plant response rating, Ryegrass, Italian [12, 16]: 30
- Plant response rating, Barnyardgrass ([13]; 31 g ai/ha): 0
- Plant response rating, Barnyardgrass [13, 16]: 50
- Plant response rating, Kochia (kochia (Bassia scoparia) [14]): 40
- Kochia plant response rating (kochia (Bassia scoparia) [14]): 40
- Plant response rating, Ragweed [15]: 30
- Ragweed plant response rating [15]: 80
